Results taken from US20260200946A1, “KRAS(G12V) INHIBITORS” (Ranok Therapeutics (Hangzhou) Co. Ltd., priority 2022, published 2026).

system: NCIH727 cells; assay: Cancer cell line proliferation (CellTiter-Glo), NCI-H727; assay type: cell-based; conditions: Homo sapiens, 72 h, NCIH727 lung carcinoid, heterozygous G12V
Procedure: Cell lines were cultured essentially according to ATCC recommendations.
SW620 and NCIH727 cells were plated in 384-well tissue culture plates at 1,000 cells/well and incubated at 37° C./5% CO2 for 72 hr in 40 μl of media. […] Each cell line was then treated with test compounds at various concentrations with a final concentration of 0.5% DMSO/well, and then incubated at 37° C./5% CO2 for 72 hr. 40 μl of CellTiter-Glo® Reagent (Promega Corporation, Madison, WI) was added to each well and processed according manufacturer's protocol. Results were analyzed and IC50 values were calculated in GraphPad 8.0 software.

`O=CO.[2H]C([2H])([2H])Oc1nc(-c2cc(O)cc3ccc(F)c(C#C)c23)c(F)c2nc(OCC3(CN4CC5CC5C4)CC3)nc(N3CC4CCC(C3)N4C(=O)C(C#N)CC#N)c12` (stereo not shown) [Example 127] and `[2H]C([2H])([2H])Oc1nc(-c2cc(O)cc3ccc(F)c(C#C)c23)c(F)c2nc(OCC3(CN4CC5CC5C4)CC3)nc(N3CC4CCC(C3)N4C(=O)C(C#N)CC(F)(F)F)c12` (stereo not shown) [Example 125] fall in the same range of EC50: 100 to 1000 nM for the first, 100 to 1000 nM for the second.

First: C#Cc1c(F)ccc2cc(O)cc(-c3nc(OC)c4c(N5CC6CCC(C5)N6C(=O)N5CC(F)C5)nc(OCC5(CN6CC7CC7C6)CC5)nc4c3F)c12 (stereo not shown) [Example 200]
Second: C#Cc1c(F)ccc2cc(O)cc(-c3nc(OC)c4c(N5CC6CCC(C5)N6C(=O)N5CC(C(F)F)C5)nc(OCC5(CN6CC7CC7C6)CC5)nc4c3F)c12 (stereo not shown) [Example 201]
The EC50 of the first is lower: less than 100 nM for the first, 100 to 1000 nM for the second. The first is the more potent here.

`C#Cc1c(F)ccc2cc(O)cc(-c3nc(C#C)c4c(N5CC6CCC(C5)N6C(=O)NC(C)(C)C)nc(OCC5(CN6CCC(F)CC6)CC5)nc4c3F)c12` [Example 74] and `C#Cc1c(F)ccc2cc(O)cc(-c3nc(C#C)c4c(N5CC6CCC(C5)N6C(=O)C5CC5(F)F)nc(OCC5(CN6CCC(F)CC6)CC5)nc4c3F)c12` (stereo not shown) [Example 94] fall in the same range of EC50: 100 to 1000 nM for the first, 100 to 1000 nM for the second.

First: C#Cc1c(F)ccc2cc(O)cc(-c3nc(OC)c4c(N5CC6CCC(C5)N6C(=O)C(C#N)C(C)(C)C)nc(OCC5(CN6CC7CC7C6)CC5)nc4c3F)c12 (stereo not shown) [Example 112]
Second: C#Cc1c(F)ccc2cc(O)cc(-c3nc(OC)c4c(N5CC6CCC(C5)N6C(=O)C[C@H](C)C#N)nc(OCC5(CN6CC7CC7C6)CC5)nc4c3F)c12 (single isomer, unassigned) [Example 178]
The EC50 of the first is higher: greater than 1000 nM for the first, 100 to 1000 nM for the second. The second is the more potent here.

`C#Cc1c(F)ccc2cc(O)cc(-c3nc(OC)c4c(N5CC6CCC(C5)N6C(=O)CCC=O)nc(OCC5(CN6CC7CC7C6)CC5)nc4c3F)c12` (stereo not shown) [Example 132] and `C#Cc1c(F)ccc2cc(O)cc(-c3nc(OC)c4c(N5CC6CCC(C5)N6C(=O)CCOC)nc(OCC5(CN6CC7CC7C6)CC5)nc4c3F)c12` (stereo not shown) [Example 108] fall in the same range of EC50: 100 to 1000 nM for the first, 100 to 1000 nM for the second.

First: Cc1cc(N)nc(-c2c(Cl)cc3c(N4CC5CCC(C4)N5C(=O)CCOC(F)(F)F)nc(OCC4(CN5CC6CC6C5)CC4)nc3c2F)c1C(F)(F)F (stereo not shown) [Example 174]
Second: C#Cc1c(F)ccc2cc(O)cc(-c3nc(OC)c4c(N5CC6CCC(C5)N6C(=O)CC(C)(O)C(F)(F)F)nc(OCC5(CN6CC7CC7C6)CC5)nc4c3F)c12 (stereo not shown) [Example 193]
The EC50 of the first is higher: greater than 1000 nM for the first, 100 to 1000 nM for the second.

Compared with `C#Cc1c(F)ccc2cc(O)cc(-c3nc(OC)c4c(N5CC6CCC(C5)N6C(=O)[C@@H]5CC5(F)F)nc(OCC5(CN6CCC(F)CC6)CC5)nc4c3F)c12` [Example 72], `C#Cc1c(F)ccc2cc(O)cc(-c3nc(OC)c4c(N5CC6CCC(C5)N6C(=O)C5C[C@H]5F)nc(OCC5(CN6CCC(F)CC6)CC5)nc4c3F)c12` (stereo partly shown) [Example 77] is lower in EC50: 100 to 1000 nM for the first, less than 100 nM for the second.

`C#Cc1c(F)ccc2cc(O)cc(-c3nc(OC)c4c(N5CC6CCC(C5)N6C(=O)NC(C)C#N)nc(OCC5(CN6CCC(C(F)(F)F)CC6)CC5)nc4c3F)c12` (stereo not shown) [Example 135] and `C#Cc1c(F)ccc2cc(O)cc(-c3nc(OC)c4c(N5CC6CCC(C5)N6C(=O)NC(C)C#N)nc(OCC5(CN6CCC(=C)CC6)CC5)nc4c3F)c12` (stereo not shown) [Example 93] cannot be ordered by EC50: less than 100 nM for the first, less than 100 nM for the second.

First: C#Cc1c(F)ccc2cc(O)cc(-c3nc(OC)c4c(N5CC6CCC(C5)N6C(=O)NC56CC(F)(C5)C6)nc(OCC5(CN6CC7CC7C6)CC5)nc4c3F)c12 (stereo not shown) [Example 183]
Second: C#Cc1c(F)ccc2cc(O)cc(-c3nc(OC)c4c(N5CC6CCC(C5)N6C(=O)NCC)nc(OCC5(CN6CC7CC7C6)CC5)nc4c3F)c12 (stereo not shown) [Example 144]
The EC50 of the first is lower: less than 100 nM for the first, 100 to 1000 nM for the second.

Compared with `C#Cc1c(F)ccc2cc(O)cc(-c3nc(OC)c4c(N5CC6CCC(C5)N6C(=O)NC5CC(F)C5)nc(OCC5(CN6CCC(F)CC6)CC5)nc4c3F)c12` (stereo not shown) [Example 91], `C#Cc1c(F)ccc2cc(O)cc(-c3nc(OC)c4c(N5CC6CCC(C5)N6C(=O)NC5CC[C@@H](F)C5)nc(OCC5(CN6CCC(F)CC6)CC5)nc4c3F)c12` (stereo partly shown) [Example 87] is higher in EC50: less than 100 nM for the first, 100 to 1000 nM for the second.

First: C#Cc1c(F)ccc2cc(O)cc(-c3nc(OC)c4c(N5CC6CCC(C5)N6C(=O)C5(C(F)(F)F)CC5)nc(OCC5(CN6CC7CC7C6)CC5)nc4c3F)c12 (stereo not shown) [Example 116]
Second: C#Cc1c(F)ccc2cc(O)cc(-c3nc(OC)c4c(N5CC6CCC(C5)N6C(=O)N[C@H](C)C(F)(F)F)nc(OCC5(CN6CC7CC7C6)CC5)nc4c3F)c12 (stereo partly shown) [Example 188]
The EC50 of the first is higher: greater than 1000 nM for the first, 100 to 1000 nM for the second.

First: C#Cc1c(F)ccc2cc(O)cc(-c3nc(OC)c4c(N5CC6CCC(C5)N6C(=O)C(C)(C#N)CC#N)nc(OCC5(CN6CC7CC7C6)CC5)nc4c3F)c12 (stereo not shown) [Example 139]
Second: C#Cc1c(F)ccc2cc(O)cc(-c3nc(OC)c4c(N5CC6CCC(C5)N6C(=O)N(C)CC#N)nc(OCC5(CN6CC7CC7C6)CC5)nc4c3F)c12 (stereo not shown) [Example 110]
The EC50 of the first is lower: 100 to 1000 nM for the first, greater than 1000 nM for the second. The first is the more potent here.

First: C#Cc1c(F)ccc2cc(O)cc(-c3nc(OC)c4c(N5CC6CCC(C5)N6C(=O)OCC#N)nc(OCC5(CN6CC7CC7C6)CC5)nc4c3F)c12 (stereo not shown) [Example 161]
Second: C#Cc1c(F)ccc2cc(O)cc(-c3nc(OC)c4c(N5CC6CCC(C5)N6C(=O)CC(C)=O)nc(OCC5(CN6CC7CC7C6)CC5)nc4c3F)c12 (stereo not shown) [Example 122]
The EC50 of the first is lower: less than 100 nM for the first, 100 to 1000 nM for the second. The first is the more potent here.

`C#Cc1c(F)ccc2cc(O)cc(-c3nc(OC)c4c(N5CC6CCC(C5)N6C(=O)N[C@H]5C[C@H](C#N)C5)nc(OCC5(CN6CC7CC7C6)CC5)nc4c3F)c12` (stereo partly shown) [Example 191] and `C#Cc1c(F)ccc2cc(O)cc(-c3nc(OC)c4c(N5CC6CCC(C5)N6C(=O)NC5CC(C#N)C5)nc(OCC5(CN6CC7CC7C6)CC5)nc4c3F)c12` (stereo not shown) [Example 145] fall in the same range of EC50: 100 to 1000 nM for the first, 100 to 1000 nM for the second.

First: C#Cc1c(F)ccc2cc(O)cc(-c3nc(OC)c4c(N5CC6CCC(C5)N6C(=O)C5(F)CC5)nc(OCC5(CN6CCC(F)CC6)CC5)nc4c3F)c12 [Example 66]
Second: C#Cc1c(F)ccc2cc(O)cc(-c3nc(OC)c4c(N5CC6CCC(C5)N6C(=N)NCC(F)(F)F)nc(OCC5(CN6CCC(F)CC6)CC5)nc4c3F)c12 [Example 85]
The EC50 of the first is lower: 100 to 1000 nM for the first, greater than 1000 nM for the second.

Compared with `C#Cc1c(F)ccc2cc(O)cc(-c3nc(OC)c4c(N5CCN(C(=O)CC#N)[C@@H](CC#N)C5)nc(OCC5(CN6CC7CC7C6)CC5)nc4c3F)c12` (stereo partly shown) [Example 117], `C#Cc1c(F)ccc2cc(O)cc(-c3nc(OC)c4c(N5CC6CCC(C5)N6C(=O)N5CC(C#N)C5)nc(OCC5(CN6CC7CC7C6)CC5)nc4c3F)c12` (stereo not shown) [Example 130] is lower in EC50: greater than 1000 nM for the first, less than 100 nM for the second. The second is the more potent here.

First: C#Cc1c(F)ccc2cc(O)cc(-c3nc(OC)c4c(N5CC6CCC(C5)N6C(=O)NCC(O)C(F)(F)F)nc(OCC5(CN6CC7CC7C6)CC5)nc4c3F)c12 (stereo not shown) [Example 187]
Second: C#Cc1c(F)ccc2cc(O)cc(-c3nc(OC)c4c(N5CC6CCC(C5)C6C(=O)NCC(F)(F)F)nc(OCC5(CN6CC7CC7C6)CC5)nc4c3F)c12 (stereo not shown) [Example 170]
The EC50 of the first is lower: 100 to 1000 nM for the first, greater than 1000 nM for the second.

`C#Cc1c(F)ccc2cc(O)cc(-c3nc(OC)c4c(N5CC6CCC(C5)N6C(=O)C5C6CCOC65)nc(OCC5(CN6CC7CC7C6)CC5)nc4c3F)c12` (stereo not shown) [Example 155] and `C#Cc1c(F)ccc2cc(O)cc(-c3nc(OC)c4c(N5CC6CCC(C5)N6C(=O)NCC(F)(F)F)nc(OCC5(CN6CCC(C#N)CC6)CC5)nc4c3F)c12` [Example 133] cannot be ordered by EC50: less than 100 nM for the first, less than 100 nM for the second.

same assay, conditions: NCIH727 lung carcinoid, heterozygous G12V, 72 hr

`C#Cc1c(F)ccc2cc(O)cc(-c3nc(OC)c4c(N5CC6CCC(C5)N6C(=O)NC5CC(F)C5)nc(OCC5(CN6CCC(F)CC6)CC5)nc4c3F)c12` (stereo not shown) [Example 92] was tested, and the EC50 was 100 to 1000 nM.
